The text below walks through data of US8362000B2, “Azetidinyl diamides as monoacylglycerol lipase inhibitors” (Janssen Pharmaceutica NV, priority 2009, dated 2013).

Numbering of substitutions follows the chain as printed. pIC50, pKd: −log10 of the molar value. Read-outs that look alike come from different tables or passages of the source.

One experiment deals with T1, MGL (Rattus norvegicus, UniProt Q8R431).
T1 construct: one g rat brain was homogenized using a Polytron homogenizer; from tissue; host or cells: rat brain homogenate
T1 sequence (Q8R431 1-303): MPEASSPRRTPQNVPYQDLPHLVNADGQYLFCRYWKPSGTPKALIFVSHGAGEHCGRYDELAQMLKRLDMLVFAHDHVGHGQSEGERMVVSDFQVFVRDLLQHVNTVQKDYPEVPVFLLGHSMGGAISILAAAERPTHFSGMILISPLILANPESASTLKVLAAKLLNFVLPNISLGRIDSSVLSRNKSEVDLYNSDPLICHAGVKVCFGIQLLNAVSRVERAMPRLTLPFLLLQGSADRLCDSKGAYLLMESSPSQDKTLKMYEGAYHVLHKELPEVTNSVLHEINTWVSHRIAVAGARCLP
Kind of experiment: 2-AG accumulation assay in rat brain homogenate. Type of experiment: biochemical. As to conditions: for 2-AG accumulation, % of vehicle control at 1 µM: read-out: Rat Brain 2AG % VehCntrl (%) @ 1 μM; for 2-AG accumulation, % of vehicle control at 10 µM: compound 10 μM, read-out: Rat Brain 2AG % VehCntrl (%) @ 10 μM.

For experiment [1], the target named is T2, purified wild type MGL (wt-MGLL 6H-11-313) (Homo sapiens, UniProt Q99685).
T2 sequence (Q99685 1-303): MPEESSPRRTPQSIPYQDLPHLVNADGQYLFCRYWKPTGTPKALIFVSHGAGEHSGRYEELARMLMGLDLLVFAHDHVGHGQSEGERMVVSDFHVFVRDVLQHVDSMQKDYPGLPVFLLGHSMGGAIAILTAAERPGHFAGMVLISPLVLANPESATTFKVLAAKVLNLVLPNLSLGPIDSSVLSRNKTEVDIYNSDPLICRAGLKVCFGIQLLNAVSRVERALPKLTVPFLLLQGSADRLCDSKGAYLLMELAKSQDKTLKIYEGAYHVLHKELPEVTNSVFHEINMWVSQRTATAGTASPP

In the next experiment the target is T3, mutant MGL (Homo sapiens, UniProt Q99685, L169S/L176S).
T3 sequence (Q99685 1-303 L169S/L176S): T2 sequence (Q99685 1-303) with L169S, L176S
Put plainly: MGL ThermoFluor assay - mutant. Type of experiment: binding. For orientation: In DSF a fluorescence change marks the thermal transition of the protein.

Setting [2] is: rat brain homogenate, compound 1 μM, 2-AG accumulation as percent of vehicle.
Where [3] appears, read: rat brain homogenate, 2-AG accumulation as percent of vehicle.
[4] abbreviates: ThermoFluor concentration-response, read-out: MGL mutant ThermoFluor Kd.
Where [5] appears, read: ThermoFluor, compound concentration measured by qNMR, read-out: MGL mutant ThermoFluor qKd (using qNMR conc.).
Where [6] appears, read: ThermoFluor thermal stability binding assay, read-out: MGL mutant ThermoFluor Kd.

The pIC50 is the IC50 on a negative log10 scale, so that one unit is a factor of ten. Low readings indicate a large IC50, high ones a small IC50. For `COc1cc(C(=O)N2CC(N3CCN(C(=O)c4cscn4)CC3)C2)ccc1-c1ccccc1` [Cpd 1253], the 2-AG accumulation, % of vehicle control at 0.1 µM on MGL (rat brain homogenate, compound 0.1 μM, 2-AG accumulation as percent of vehicle, read-out: Rat Brain 2AG % VehCntrl (%) @ 0.1 μM) turned out to be 110%. Also, the 2-AG accumulation, % of vehicle control at 1 µM at MGL (setting [2]) was 190%. In addition, the 2-AG accumulation, % of vehicle control at 10 µM on MGL (setting [3]) was determined as 407%. Moreover, in experiment [1], the pIC50 is 6.14. Besides, the pKd at mutant MGL (setting [4]) was 7.06.
Regarding `O=C(c1ccc(Sc2cccc(C(F)(F)F)c2)cc1)N1CC(N2CCN(C(=O)c3cscn3)CC2)C1` [Cpd 432], at MGL (setting [2]), the 2-AG accumulation, % of vehicle control at 1 µM came out at 321%. The compound further had a pIC50 in experiment [1] above 8.30. Moreover, the pKd at mutant MGL (setting [4]) was 7.60.
For `O=C(c1ccc2c(-c3cccc(C(F)(F)F)c3)c[nH]c2c1)N1CC(N2CCN(C(=O)c3cscn3)CC2)C1` [Cpd 1345], in that order: 459%, above 8.30 and 8.22.
Regarding `O=C(c1ccc2c(ccn2-c2ccc(Cl)cn2)c1)N1CC(N2CCN(C(=O)c3nccs3)CC2)C1` [Cpd 1313, 1-(5-Chloropyridin-2-yl)-5-({3-[4-(1,3-thiazol-2-ylcarbonyl)piperazin-1-yl]azetidin-1-yl}carbonyl)-1H-indole], on MGL (setting [2]), the 2-AG accumulation, % of vehicle control at 1 µM was found to be 851%. The compound further showed a pIC50 in experiment [1] above 8.30. Also, the values for the pKd on mutant MGL (setting [4]) and at mutant MGL (setting [5]) were 8.52 and 9.00, respectively.
For `COc1ccc(-c2cccc(C(=O)N3CC(N4CCN(C(=O)c5nccs5)CC4)C3)c2)cc1` [Cpd 1091], the 2-AG accumulation, % of vehicle control at 1 µM at MGL (setting [2]) was 450%. The compound also had a pIC50 in experiment [1] of 7.96. The pKd on mutant MGL (setting [4]) was 5.78.
With `COc1cc(C(=O)N2CC(N3CCN(C(=O)c4cscn4)CC3)C2)ccc1-c1ccc(Cl)c(C(F)(F)F)c1` [Cpd 262, 1-(1-{[4′-Chloro-2-methoxy-3′-(trifluoromethyl)biphenyl-4-yl]carbonyl}azetidin-3-yl)-4-(1,3-thiazol-4-ylcarbonyl)piperazine], the 2-AG accumulation, % of vehicle control at 1 µM at MGL (setting [2]) is 386%. This compound showed a pIC50 in experiment [1] above 8.30. For the same compound, the pKd at mutant MGL (setting [6]) was 8.60.
For the compound `O=C(c1cc2cc(-c3ccccc3)ccc2o1)N1CC(N2CCN(C(=O)c3nccs3)CC2)C1` [Cpd 1342], on MGL (setting [2]), the 2-AG accumulation, % of vehicle control at 1 µM turned out to be 346%. In experiment [1], the pIC50 was above 8.30. The pKd on mutant MGL (setting [6]) was 6.87.
With `COc1ccc(C(=O)N2CC(N3CCN(C(=O)c4nccs4)CC3)C2)cc1-c1ccccc1` [Cpd 1168], at MGL (setting [2]), the 2-AG accumulation, % of vehicle control at 1 µM worked out at 780%. The pIC50 in experiment [1] is 7.28. Further, on mutant MGL (setting [4]), the pKd is 7.17.
The like results for `O=C(c1cscn1)N1CC(N2CCN(C(=O)c3cc4cc(C(F)(F)F)ccc4s3)CC2)C1` [Cpd 716, 1-[1-(1,3-Thiazol-4-ylcarbonyl)azetidin-3-yl]-4-{[5-(trifluoromethyl)-1-benzothiophen-2-yl]carbonyl}piperazine] were, in that order, 326%, 6.85 and 7.40.
With `O=C(c1ccc(-c2ccccc2)cc1)N1CCN(C2CN(C(=O)c3nccs3)C2)CC1` [Cpd 1236, 1-(Biphenyl-4-ylcarbonyl)-4-[1-(1,3-thiazol-2-ylcarbonyl)azetidin-3-yl]piperazine], the 2-AG accumulation, % of vehicle control at 1 µM at MGL (setting [2]) was 167%. In experiment [1], the pIC50 was 6.41. Besides, at mutant MGL (setting [4]), the pKd was 7.51.
On to `O=C(c1ccc(-c2nc(-c3ccc(Cl)c(Cl)c3)cs2)cc1)N1CC(N2CCN(C(=O)c3nccs3)CC2)C1` [Cpd 1331], for which the 2-AG accumulation, % of vehicle control at 1 µM at MGL (setting [2]) is 803%. The pIC50 in experiment [1] is above 8.30. Also, the pKd at mutant MGL (setting [5]) is 8.00.
In the case of `O=C(c1ccc2c(c1)CCN(c1ccccn1)C2)N1CC(N2CCN(C(=O)c3nccs3)CC2)C1` [Cpd 661], the 2-AG accumulation, % of vehicle control at 1 µM on MGL (setting [2]) was 764%. The same compound had a pIC50 in experiment [1] of 8.00. On mutant MGL (setting [6]), the pKd is 7.33.
Turning to `O=C(c1cc(-c2ccccc2)cc(C(F)(F)F)c1)N1CC(N2CCN(C(=O)c3nccs3)CC2)C1` [Cpd 1144, 1-(1,3-Thiazol-2-ylcarbonyl)-4-(1-{[5-(trifluoromethyl)biphenyl-3-yl]carbonyl}azetidin-3-yl)piperazine], the 2-AG accumulation, % of vehicle control at 1 µM on MGL (setting [2]) was found to be 212%. Besides, in experiment [1], the pIC50 was 7.51. Also, on mutant MGL (setting [4]), the pKd was 6.74.
The like results for `O=C(c1nccs1)N1CCN(C2CN(C(=O)c3sc4cc(-c5ccc(C(F)(F)F)cc5)ccc4c3F)C2)CC1` [Cpd 1063] were, in that order, 846%, 8.15 and 8.52.
In the case of `O=C(c1nn(-c2ccc(Cl)cc2Cl)c2c1CCC/C2=C\c1ccc(Cl)cc1)N1CC(N2CCN(C(=O)C(F)(F)F)CC2)C1` [Cpd 1020], the 2-AG accumulation, % of vehicle control at 1 µM on MGL came to 135%. Moreover, in experiment [1], the pIC50 is 7.20. The compound further had a pKd on mutant MGL (MGL mutant ThermoFluor Kd, ThermoFluor concentration-response) of 5.52.
As for `O=C(c1ccccc1)N1CCN(C2CN(C(=O)c3cc4cccc(C(F)(F)F)c4s3)C2)CC1` [Cpd 329, 1-(Phenylcarbonyl)-4-(1-{[7-(trifluoromethyl)-1-benzothiophen-2-yl]carbonyl}azetidin-3-yl)piperazine], the 2-AG accumulation, % of vehicle control at 10 µM at MGL (setting [3]) amounted to 520%. The compound further showed a pIC50 in experiment [1] of 5.91. At mutant MGL (setting [6]), the pKd is 7.20.
On to `Cn1nc(-c2ccccc2)c2cc(C(=O)N3CC(N4CCN(C(=O)c5nccs5)CC4)C3)ccc21` [Cpd 1137, 1-Methyl-3-phenyl-5-({3-[4-(1,3-thiazol-2-ylcarbonyl)piperazin-1-yl]azetidin-1-yl}carbonyl)-1H-indazole], for which the 2-AG accumulation, % of vehicle control at 1 µM at MGL (setting [2]) was found to be 582%. The compound further showed a pIC50 in experiment [1] of 7.59. On mutant MGL (setting [4]), the pKd is 8.00.
As to `O=C(c1cnc2c(ccn2-c2ccc(F)cc2)c1)N1CC(N2CCN(C(=O)c3nccs3)CC2)C1` [Cpd 1056], the 2-AG accumulation, % of vehicle control at 1 µM on MGL (setting [2]) is 498%. For the same compound, the negative logarithm of the IC50 (pIC50) in experiment [1] was 8.22. Also, the Kd on mutant MGL (ThermoFluor, compound concentration measured by qNMR, read-out: MGL mutant ThermoFluor qKd (μM) (using qNMR conc.)) was 0.012 µM.
Take `O=C(c1ccc2c(c1)Sc1ccccc1O2)N1CC(N2CCN(C(=O)c3cscn3)CC2)C1` [Cpd 654]: the 2-AG accumulation, % of vehicle control at 1 µM at MGL (setting [2]) amounted to 389%. Besides, in experiment [1], the pIC50 was 8.15. Also, the pKd on mutant MGL (setting [6]) was 7.40.
As for `O=C(c1ccc2c(c1)c(Cl)cn2-c1ccc(F)cc1)N1CC(N2CCN(C(=O)c3nccs3)CC2)C1` [Cpd 1365, 3-Chloro-1-(4-fluorophenyl)-5-({3-[4-(1,3-thiazol-2-ylcarbonyl)piperazin-1-yl]azetidin-1-yl}carbonyl)-1H-indole], on MGL (setting [2]), the 2-AG accumulation, % of vehicle control at 1 µM was found to be 909%. For the same compound, the negative-log IC50 (pIC50) in experiment [1] is above 8.30. For the same compound, the pKd at mutant MGL (setting [4]) is 8.70.
For `O=C(c1ccc(-c2ccccc2)c(F)c1)N1CC(N2CCN(C(=O)c3nccs3)CC2)C1` [Cpd 166, 1-{1-[(2-Fluorobiphenyl-4-yl)carbonyl]azetidin-3-yl}-4-(1,3-thiazol-2-ylcarbonyl)piperazine], in that order: 509%, above 8.30 and 8.30.
As for `Cc1cn(-c2ccccc2)c2ccc(C(=O)N3CC(N4CCN(C(=O)c5cscn5)CC4)C3)cc12` [Cpd 1152], the 2-AG accumulation, % of vehicle control at 1 µM at MGL (setting [2]) worked out at 394%. Moreover, the pIC50 in experiment [1] is 7.42. Besides, the pKd at mutant MGL (setting [6]) is 8.15.
In the case of `O=C(c1nccs1)N1CCN(C2CN(C(=O)c3sc4cc(Cl)ccc4c3C(F)(F)F)C2)CC1` [Cpd 664], the 2-AG accumulation, % of vehicle control at 1 µM on MGL (setting [2]) is 498%. The compound also gave a pIC50 in experiment [1] of 7.96. Moreover, the pKd on mutant MGL (setting [4]) is 8.22.
As for `Cc1cn(-c2ccc(F)c(F)c2)c2ccc(C(=O)N3CCN(C4CN(C(=O)c5nccs5)C4)CC3)cc12` [Cpd 1134, 1-(3,4-Difluorophenyl)-3-methyl-5-({4-[1-(1,3-thiazol-2-ylcarbonyl)azetidin-3-yl]piperazin-1-yl}carbonyl)-1H-indole], the 2-AG accumulation, % of vehicle control at 1 µM on MGL (setting [2]) was found to be 774%. In experiment [1], this compound gave a pIC50 of 7.60. In addition, the pKd on mutant MGL (setting [5]) was 8.05.
For `Cc1ccc(-n2ccc3cc(C(=O)N4CC(N5CCN(C(=O)c6nccs6)CC5)C4)ccc32)cn1` [Cpd 1105, 1-(6-Methylpyridin-3-yl)-5-({3-[4-(1,3-thiazol-2-ylcarbonyl)piperazin-1-yl]azetidin-1-yl}carbonyl)-1H-indole], in that order: 734%, 7.89 and 7.64.
